This passage reports GI50 and TGI results from PubChem BioAssay (NCI).

Where “and” joins values, the source holds several entries; their conditions need not be identical. Equal entries are not always repeated.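 Cells were grown in 96-well plates and exposed to each compound for 48 hours at five concentrations; endpoints were interpolated linearly between bracketing concentrations, or set to the highest concentration if not reached. Here, GI50 denotes the concentration required for 50% inhibition of growth. TGI denotes the concentration required for complete inhibition of growth.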

In the first assay the test system is COLO 205 colon. In words: growth of human tumour cells (NCI), 48 h.
For the molecule `Cc1ccc(CN2CCC(C(=O)Nc3ccc(-c4cc5ccccc5[nH]4)cc3)CC2)o1`, the GI50 is 71 µM and the TGI is above 100 µM.

In turn, `C=CCOc1ccc2c(C)cc(=O)oc2c1C` registered a TGI above 100 µM.

For `Nc1c(C(=O)c2cccc(CCS(N)(=O)=O)c2)cnn1-c1ccc(F)cc1`, the GI50 was above 25 µM and the TGI is above 25 µM.

In the case of `Cc1ccc2c(C)c3c(ccc4ccccc43)c[n+]2c1`, the GI50 is 11 µM and the TGI was determined as 24.7 µM.

As to `Fc1ccc(NC(=S)SCc2ccc3c(c2)OCO3)cc1F`, the TGI was 44.9 µM.

Take `COc1cc2c(c(OC)c1OC)-c1ccc(NNC(N)=S)c(=O)cc1[C@@H](NC(C)=O)CC2`: the GI50 was 0.244 µM and the TGI was found to be 0.529 µM.

Turning to `CCOC(=O)Cn1c(C(F)(F)F)nc2nc(Cl)c(Cl)nc21`, the TGI is above 100 µM.

Consider `O=C1NC(=NCCc2cccc(F)c2)S/C1=C\c1ccc2ncccc2c1`, for which the GI50 is 1.43 µM and the TGI was above 25 µM.

On to `OC1CSSC1Cn1cnc2c(Nc3ccc(OCc4cccc(F)c4)c(Cl)c3)ncnc21` (stereo not drawn), for which the GI50 is 2.83 µM and the TGI came to 8.69 µM.

With `C[C@@H](Oc1cc(-n2cnc3ccc(CN4CCN(C)CC4)cc32)sc1C(N)=O)c1ccccc1C(F)(F)F`, the GI50 was < 0.01 µM and 0.00424 µM; the TGI amounted to 0.699 µM.

The test system of another assay is DU-145 prostate. In words: growth of human tumour cells (NCI), 48 h.
Consider `Cc1ccc(CN2CCC(C(=O)Nc3ccc(-c4cc5ccccc5[nH]4)cc3)CC2)o1`, for which the GI50 was above 100 µM and the TGI is above 100 µM.

Molecule `C=CCOc1ccc2c(C)cc(=O)oc2c1C` registered a TGI above 100 µM.

In the case of `Nc1c(C(=O)c2cccc(CCS(N)(=O)=O)c2)cnn1-c1ccc(F)cc1`, the GI50 was above 25 µM and the TGI is above 25 µM.

Consider `Cc1ccc2c(C)c3c(ccc4ccccc43)c[n+]2c1`, for which the GI50 is 14.7 µM and the TGI worked out at 40.6 µM.

`Fc1ccc(NC(=S)SCc2ccc3c(c2)OCO3)cc1F` returned a TGI above 100 µM.

With `COc1cc2c(c(OC)c1OC)-c1ccc(NNC(N)=S)c(=O)cc1[C@@H](NC(C)=O)CC2`, the GI50 was 0.341 µM and the TGI is 1.44 µM.

In turn, `CCOC(=O)Cn1c(C(F)(F)F)nc2nc(Cl)c(Cl)nc21` had a TGI of 13.9 µM.

With `O=C1NC(=NCCc2cccc(F)c2)S/C1=C\c1ccc2ncccc2c1`, the GI50 is 10.1 µM and the TGI is above 25 µM.

Turning to `OC1CSSC1Cn1cnc2c(Nc3ccc(OCc4cccc(F)c4)c(Cl)c3)ncnc21` (stereo not drawn), the GI50 is 1.19 µM and the TGI came to 4.95 µM.

In the case of `C[C@@H](Oc1cc(-n2cnc3ccc(CN4CCN(C)CC4)cc32)sc1C(N)=O)c1ccccc1C(F)(F)F`, the GI50 was < 0.0134 µM and 0.00975 µM; the TGI is 0.652 µM and 0.188 µM.

For another assay, the system named is HCT-15 colon. Briefly: growth of human tumour cells (NCI), 48 h.
In the case of `Cc1ccc(CN2CCC(C(=O)Nc3ccc(-c4cc5ccccc5[nH]4)cc3)CC2)o1`, the GI50 is above 100 µM and the TGI is above 100 µM.

As for `C=CCOc1ccc2c(C)cc(=O)oc2c1C`, the TGI was above 100 µM.

As for `Nc1c(C(=O)c2cccc(CCS(N)(=O)=O)c2)cnn1-c1ccc(F)cc1`, the GI50 is above 25 µM and the TGI was above 25 µM.

Regarding `Cc1ccc2c(C)c3c(ccc4ccccc43)c[n+]2c1`, the GI50 was 77.7 µM and the TGI is above 100 µM.

In the case of `Fc1ccc(NC(=S)SCc2ccc3c(c2)OCO3)cc1F`, the TGI was determined as 34.5 µM.

On to `COc1cc2c(c(OC)c1OC)-c1ccc(NNC(N)=S)c(=O)cc1[C@@H](NC(C)=O)CC2`, for which the GI50 was 4.23 µM and the TGI is above 100 µM.

Molecule `CCOC(=O)Cn1c(C(F)(F)F)nc2nc(Cl)c(Cl)nc21` yielded a TGI above 100 µM.

Take `O=C1NC(=NCCc2cccc(F)c2)S/C1=C\c1ccc2ncccc2c1`: the GI50 is 0.77 µM and the TGI is above 25 µM.

Take `OC1CSSC1Cn1cnc2c(Nc3ccc(OCc4cccc(F)c4)c(Cl)c3)ncnc21` (stereo not drawn): the GI50 is 0.767 µM and the TGI worked out at 2.16 µM.

In the case of `C[C@@H](Oc1cc(-n2cnc3ccc(CN4CCN(C)CC4)cc32)sc1C(N)=O)c1ccccc1C(F)(F)F`, the GI50 was 0.045 µM and 0.0432 µM; the TGI is 12.9 µM and > 10 µM.

The next assay has as its system NCI-H226 lung. In words: growth of human tumour cells (NCI), 48 h.
Consider `Cc1ccc(CN2CCC(C(=O)Nc3ccc(-c4cc5ccccc5[nH]4)cc3)CC2)o1`, for which the GI50 was above 100 µM and the TGI was above 100 µM.

Turning to `C=CCOc1ccc2c(C)cc(=O)oc2c1C`, the TGI is above 100 µM.

With `Nc1c(C(=O)c2cccc(CCS(N)(=O)=O)c2)cnn1-c1ccc(F)cc1`, the GI50 is above 19.7 µM and the TGI is above 25 µM.

Regarding `Cc1ccc2c(C)c3c(ccc4ccccc43)c[n+]2c1`, the GI50 is 21.1 µM and the TGI was above 100 µM.

Turning to `Fc1ccc(NC(=S)SCc2ccc3c(c2)OCO3)cc1F`, the TGI was above 100 µM.

Molecule `COc1cc2c(c(OC)c1OC)-c1ccc(NNC(N)=S)c(=O)cc1[C@@H](NC(C)=O)CC2` registered a TGI above 100 µM.

In turn, `CCOC(=O)Cn1c(C(F)(F)F)nc2nc(Cl)c(Cl)nc21` had a TGI above 100 µM.

Take `O=C1NC(=NCCc2cccc(F)c2)S/C1=C\c1ccc2ncccc2c1`: the GI50 is above 12.9 µM and the TGI was above 25 µM.

Regarding `OC1CSSC1Cn1cnc2c(Nc3ccc(OCc4cccc(F)c4)c(Cl)c3)ncnc21` (stereo not drawn), the GI50 is 3.38 µM and the TGI turned out to be 12.8 µM.

On to `C[C@@H](Oc1cc(-n2cnc3ccc(CN4CCN(C)CC4)cc32)sc1C(N)=O)c1ccccc1C(F)(F)F`, for which the TGI was 19 µM and > 10 µM.

The subject of a further assay is NCI-H522 lung. In words: growth of human tumour cells (NCI), 48 h.
Take `Cc1ccc(CN2CCC(C(=O)Nc3ccc(-c4cc5ccccc5[nH]4)cc3)CC2)o1`: the GI50 was above 100 µM and the TGI is above 100 µM.

Consider `C=CCOc1ccc2c(C)cc(=O)oc2c1C`, for which the TGI amounted to 81.4 µM.

`Nc1c(C(=O)c2cccc(CCS(N)(=O)=O)c2)cnn1-c1ccc(F)cc1`: the GI50 is above 25 µM and the TGI is above 25 µM.

On to `Cc1ccc2c(C)c3c(ccc4ccccc43)c[n+]2c1`, for which the GI50 was 15.5 µM and the TGI came to 38.8 µM.

`Fc1ccc(NC(=S)SCc2ccc3c(c2)OCO3)cc1F` yielded a TGI of 35.4 µM.

Turning to `COc1cc2c(c(OC)c1OC)-c1ccc(NNC(N)=S)c(=O)cc1[C@@H](NC(C)=O)CC2`, the GI50 was 0.55 µM and the TGI was above 100 µM.

For the molecule `CCOC(=O)Cn1c(C(F)(F)F)nc2nc(Cl)c(Cl)nc21`, the TGI is 58.2 µM.

Regarding `O=C1NC(=NCCc2cccc(F)c2)S/C1=C\c1ccc2ncccc2c1`, the GI50 is 3.59 µM and the TGI was 24.9 µM.

Regarding `OC1CSSC1Cn1cnc2c(Nc3ccc(OCc4cccc(F)c4)c(Cl)c3)ncnc21` (stereo not drawn), the GI50 is 1.12 µM and the TGI is 4.15 µM.

Regarding `C[C@@H](Oc1cc(-n2cnc3ccc(CN4CCN(C)CC4)cc32)sc1C(N)=O)c1ccccc1C(F)(F)F`, the GI50 was < 0.01 µM and 0.00531 µM; the TGI amounted to 0.0369 µM.
